Test results as given in patent US11226337B2, “Chemoproteomic profiling of protein electrophilic and oxidative post-translational modifications” (Zenagem, LLC, priority 2017, dated 2022).

What was measured:
[1] = molecular target: T1, FASTICD5 FAST kinase domain containing (Q7L8L6) (Homo sapiens, UniProt Q7L8L6); assay: SILAC RP-ABPP; type: cell-based; settings: SILAC H/L, HEK293T
T1 construct: shared by both the endogenous and recombinant forms of these proteins; endogenous in cells; host or cells: HEK293T and MDA-MB-231
T1 sequence (Q7L8L6 28-764): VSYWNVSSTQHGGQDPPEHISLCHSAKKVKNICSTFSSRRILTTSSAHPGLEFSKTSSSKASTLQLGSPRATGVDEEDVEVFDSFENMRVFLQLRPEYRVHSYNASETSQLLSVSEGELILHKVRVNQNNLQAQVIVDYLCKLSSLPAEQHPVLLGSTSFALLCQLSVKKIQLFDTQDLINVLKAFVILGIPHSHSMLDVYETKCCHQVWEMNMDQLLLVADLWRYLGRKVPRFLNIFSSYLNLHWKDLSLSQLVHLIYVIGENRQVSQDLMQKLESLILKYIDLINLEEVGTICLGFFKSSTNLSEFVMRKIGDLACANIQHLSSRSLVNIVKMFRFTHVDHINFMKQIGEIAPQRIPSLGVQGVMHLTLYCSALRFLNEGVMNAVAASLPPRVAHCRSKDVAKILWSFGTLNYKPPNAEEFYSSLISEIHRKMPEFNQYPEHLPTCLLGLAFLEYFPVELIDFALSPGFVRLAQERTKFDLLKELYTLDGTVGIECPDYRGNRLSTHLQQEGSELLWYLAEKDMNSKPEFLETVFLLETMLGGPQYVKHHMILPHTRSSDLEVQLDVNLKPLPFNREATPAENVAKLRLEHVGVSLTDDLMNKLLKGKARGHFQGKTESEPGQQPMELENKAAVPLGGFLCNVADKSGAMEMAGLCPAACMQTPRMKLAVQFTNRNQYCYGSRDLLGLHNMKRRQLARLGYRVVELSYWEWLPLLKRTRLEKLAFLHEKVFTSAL
Method: (§1) For MS-based experiments, labelling was performed in a similar manner as described above in Example 2, maintaining the same concentrations of probes. Modifications to this protocol included using isotopically ‘light’ and ‘heavy’ SILAC cells that were also grown to near complete confluence prior to treatment. Isotopically light cells were treated with the non-clickable hydrazine probe (at the same concentration as the probe in ‘enrichment’ experiments) or the probe in the presence of 10-fold excess non-clickable hydrazine probe as a competitor (in ‘competition’ experiments). Isotopically heavy cells were treated with the probe for both types of experiments. These treatments were performed in non-SILAC media. Following treatments, cells were washed with cold PBS to remove the probe-containing media, harvested by scraping, collected by centrifugation (1,400 g, 3 min, 4° C.), washed again by resuspension in cold PBS and frozen as pellets at −80° C. until use.
(§2) The fractionated equimolar mixture of heavy and light soluble proteomes (1-1.5 mg) was diluted to 1 mL in PBS. Click reactions were scaled accordingly (except for biotin-azide) to maintain final concentrations of 0.1 mM TBTA, 1 mM CuSO4, 100 μM biotin-azide (10 mM in DMSO) and 1 mM TCEP. The mixture was vortexed and placed on a rotator at ambient temperature for 1 hour. Sequential addition of and mixture with pre-chilled methanol (MeOH, 2 mL), chloroform (CHCl3, 0.5 mL) and PBS (1 mL) on ice quenched the reaction. The precipitated proteome was centrifuged (5,000 g, 10 min, 4° C.) to fractionate the protein interphase from the organic and aqueous solvent layers. The protein pellet was washed with cold 1:1 MeOH:CHCl3 (3×1 mL), mildly sonicated in cold 4:1 MeOH:CHCl3 (2.5 mL) and pelleted once more by centrifugation (5,000 g, 10 min, 4° C.) to ensure click reagents were efficiently removed.
(§3) Heavy and light parent ion chromatograms associated with successfully identified peptides were extracted and compared using CIMAGE software as previously described^69. At least one ion of a co-eluting heavy-light pair must be accurately identified from a fragmentation event that occurred within the retention time window (±10 min) of parent ion elution. To ensure that the correct pair of peaks is quantified, chromatograms are extracted within a 10 ppm error tolerance of the predicted m/z, the signal-to-noise ratio must be >2.5 and the ‘co-elution correlation score’ and ‘envelope correlation score’ must have R^2 values ≥0.8. In addition, peptides detected as ‘singletons,’ where only the heavy ion of a peptide pair was identified, but for which passed all other filtering parameters, are given a default assigned ratio of ‘20,’ which is defined as any measured ratio that is ≥20.
(§4) To further eliminate false positives and any stochastic variability in the data, protein ratios were then determined by the median peptide ratio derived from three or more unique quantified peptides. Protein ratios that complied with these criteria from a single experiment were then averaged with ratios acquired from ≥3 replicates to provide final values for each type of experiment in both cell lines with both probes. […] Most importantly, there are no robustly measured ratios for proteins identified as probe 1 targets that had measured ratios of ˜1 with probe 2. Probe targets in HEK293T and MDA-MB-231 cells represent data combined from ≥3 independent biological replicates with each cell type performed with several independent batches of synthesized probes over a period of almost two years. […]

[2] = molecular target: T2, LGALS3BP Galectin3binding protein (Q08380) (Homo sapiens, UniProt Q08380); assay: SILAC RP-ABPP; type: cell-based; settings: SILAC H/L, MDA-MB-231
T2 construct: In Situ Labelling of Cells with Hydrazine Probes for MS Experiments; endogenous in cells
T2 sequence (Q08380 19-585): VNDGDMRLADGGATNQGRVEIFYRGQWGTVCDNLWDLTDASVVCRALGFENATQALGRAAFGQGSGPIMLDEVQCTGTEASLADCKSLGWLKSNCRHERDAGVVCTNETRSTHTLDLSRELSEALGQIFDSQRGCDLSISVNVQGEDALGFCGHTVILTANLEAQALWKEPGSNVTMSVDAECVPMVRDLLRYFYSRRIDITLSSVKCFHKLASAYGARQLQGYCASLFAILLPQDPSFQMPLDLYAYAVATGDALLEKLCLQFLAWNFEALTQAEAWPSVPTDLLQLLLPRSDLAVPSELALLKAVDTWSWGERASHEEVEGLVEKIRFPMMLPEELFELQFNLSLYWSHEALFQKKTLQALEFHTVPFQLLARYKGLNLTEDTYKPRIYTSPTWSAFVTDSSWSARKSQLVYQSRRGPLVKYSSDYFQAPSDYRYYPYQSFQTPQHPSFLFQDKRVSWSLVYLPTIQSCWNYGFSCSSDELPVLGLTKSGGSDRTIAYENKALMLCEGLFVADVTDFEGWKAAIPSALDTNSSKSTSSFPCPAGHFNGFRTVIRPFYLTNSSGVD
Method: as §1, §2, §3, §4

| SMILES | enrichment ratioavg ([1]; probe 1 3 mM 0.5 h vs probe 3) | competition ratioavg ([1]; probe 1 vs probe 1+10x probe 3) | enrichment ratioavg ([2]; probe 1 3 mM 0.5 h vs probe 3) | competition ratioavg ([2]; probe 1 vs probe 1+10x probe 3) | enrichment ratioavg ([1]; probe 2 1 mM 0.5 h vs probe 4) | competition ratioavg ([1]; probe 2 vs probe 2+10x probe 4) | enrichment ratioavg ([2]; probe 2 1 mM 0.5 h vs probe 4) | competition ratioavg ([2]; probe 2 vs probe 2+10x probe 4) |
| --- | --- | --- | --- | --- | --- | --- | --- | --- |
| C#CCNN.Cl [probe 1, prop-2-yn-1-ylhydrazine hydrochloride] | 18 | 3 | 7 | 3 |  |  |  |  |
| C#CCCNC(=O)c1ccc(NN)cc1.Cl [probe 2, N-(but-3-yn-1-yl)-4-hydrazinylbenzamide hydrochloride] |  |  |  |  | 10 | 3 | 7 | 3 |
